Results as given in ChEMBL document CHEMBL1132600 (J Med Chem, 1999).

molecular target: Cannabinoid receptor 1 (Rattus norvegicus, UniProt P20272); experiment: Tested for binding affinity to Cannabinoid receptor 1
Sequence (P20272 whole entry): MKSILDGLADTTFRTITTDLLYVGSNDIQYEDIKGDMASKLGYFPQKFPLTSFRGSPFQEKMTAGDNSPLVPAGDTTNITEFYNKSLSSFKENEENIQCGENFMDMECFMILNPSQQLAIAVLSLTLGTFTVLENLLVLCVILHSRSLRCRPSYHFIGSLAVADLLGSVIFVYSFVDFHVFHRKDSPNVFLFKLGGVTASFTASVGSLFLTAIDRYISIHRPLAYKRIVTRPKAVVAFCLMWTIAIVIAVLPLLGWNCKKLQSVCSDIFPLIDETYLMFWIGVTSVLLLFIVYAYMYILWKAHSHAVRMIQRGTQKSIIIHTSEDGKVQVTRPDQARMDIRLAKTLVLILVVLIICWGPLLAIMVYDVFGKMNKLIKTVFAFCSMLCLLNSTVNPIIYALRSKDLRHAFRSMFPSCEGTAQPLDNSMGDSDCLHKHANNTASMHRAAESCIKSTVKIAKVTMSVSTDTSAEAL

`CCCCC/C=C\C/C=C\CCCCCCCC(=O)N[C@@H](C)CO` and `CCCCCCCC/C=C\CCCCCCCC(=O)N[C@@H](C)CO` cannot be ordered by Ki: over 10000 nM for the first, over 10000 nM for the second.

Going from `CCCCC/C=C\C/C=C\C/C=C\C/C=C\CCCC(=O)N(C)CCO` to `CCCCC/C=C\C/C=C\C/C=C\C/C=C\CCCC(N)=O` [ARACHIDONAMIDE], the Ki rises from 4980 nM to 9600 nM (1.9-fold).

Going from `CCCCC/C=C\C/C=C\C/C=C\C/C=C\CCCC(=O)NC[C@@H](C)O` to `CCCCC/C=C\C/C=C\C/C=C\C/C=C\CCCC(=O)NC[C@H](C)O`, the Ki falls from 119 nM to 26 nM (4.6-fold). The second binds more tightly here.

`CCCCC/C=C\C/C=C\C/C=C\C/C=C\CCCC(=O)NC1CCC(O)CC1` (stereo not drawn) and `CCCCC/C=C\C/C=C\C/C=C\C/C=C\CCCC(=O)NC(C)(C)CO` are within 1.5-fold of each other in Ki: 217 nM for the first, 151 nM for the second.

Going from `CCCCCCCCCCCCCCCCCC(=O)NCCO` [N-(2-HYDROXYETHYL)STEARAMIDE] to `CCCCCCCC/C=C\CCCCCCCC(=O)NCCO` [OLEOYLETHANOLAMIDE], the Ki rises from 217 nM to over 10000 nM.

Going from `CCCCC/C=C\C/C=C\C/C=C\C/C=C\CCC(C)(C)C(=O)NCCO` to `CCCCC/C=C\C/C=C\C/C=C\C/C=C\CCCC(=O)NCCF`, the Ki falls from 72.2 nM to 8.6 nM (8.4-fold). The second binds more tightly here.

`CCCCC/C=C\C/C=C\C/C=C\C/C=C\CCCC(=O)Nc1ccc(CO)cc1` showed a Ki of over 3000 nM.
